Patent US10450306B2, “Isoxazole analogs as FXR agonists and methods of use thereof” (Enanta Pharmaceuticals, Inc., priority 2016, dated 2019)

Target: T1, human FXR (NR1H4) (Homo sapiens, UniProt Q96RI1)
T1 construct: host or cells: CHO (Chinese hamster ovary) reporter cells
T1 sequence (Q96RI1 1-486): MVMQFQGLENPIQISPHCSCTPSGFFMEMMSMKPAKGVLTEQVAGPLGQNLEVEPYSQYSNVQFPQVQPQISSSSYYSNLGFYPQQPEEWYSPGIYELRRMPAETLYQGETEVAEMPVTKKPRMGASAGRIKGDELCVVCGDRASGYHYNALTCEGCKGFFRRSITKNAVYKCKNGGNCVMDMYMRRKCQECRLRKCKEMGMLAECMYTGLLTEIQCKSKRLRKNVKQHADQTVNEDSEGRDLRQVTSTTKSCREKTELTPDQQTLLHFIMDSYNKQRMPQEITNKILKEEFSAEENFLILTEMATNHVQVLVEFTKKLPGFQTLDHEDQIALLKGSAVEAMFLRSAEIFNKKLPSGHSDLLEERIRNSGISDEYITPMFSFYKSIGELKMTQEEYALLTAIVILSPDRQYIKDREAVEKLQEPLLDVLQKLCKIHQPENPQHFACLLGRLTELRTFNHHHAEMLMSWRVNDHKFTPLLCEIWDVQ
Experiment: Human FXR (NR1H4) Assay: Gal4 promoter driven luciferase reporter transactivation in CHO cells (Indigo Bioscience kit IB00601); on Efficacy (%): efficacy normalized to CDCA set as 100%
Format: cell-based
Conditions: for Emax: CHO, read-out: Efficacy (%); for EC50: Human FXR (NR1H4) reporter assay, potency ranges
Text: Human FXR (NR1H4) Assay Determination of a ligand mediated Gal4 promoter driven transactivation to quantify ligand binding mediated activation of FXR. FXR Reporter Assay kit purchased from Indigo Bioscience (Catalogue number: IB00601) to determine the potency and efficacy of compound developed by Enanta that can induce FXR activation. The principle application of this reporter assay system is to quantify functional activity of human FXR. The assay utilizes non-human mammalian cells, CHO (Chinese hamster ovary) cells engineered to express human NR1H4 protein (referred to as FXR). Reporter cells also incorporate the cDNA encoding beetle luciferase which catalyzes the substrates and yields photon emission. Luminescence intensity of the reaction is quantified using a plate-reading luminometer, Envision. Reporter Cells include the luciferase reporter gene functionally linked to an FXR responsive promoter. Thus, quantifying changes in luciferase expression in the treated reporter cells provides a sensitive surrogate measure of the changes in FXR activity. […] The assay is according to the manufacturer's instructions. In brief, the assay was performed in white, 96 well plates using final volume of 100 ul containing cells with different doses of compounds. Retrieve Reporter Cells from −80° C. storage. Perform a rapid thaw of the frozen cells by transferring a 10 ml volume of 37° C. cell recovery medium into the tube of frozen cells. Recap the tube of Reporter Cells and immediately place it in a 37° C. water bath for 5-10 minutes. Retrieve the tube of Reporter Cell Suspension from the water bath. Sanitize the outside surface of the tube with a 70% alcohol swab, and then transfer it into the cell culture hood. Dispense 90 μl of cell suspension into each well of the 96-well Assay Plate. Transfer the plate into 37° C. incubator, allowing the cells adherent to the bottom of the well. Dilute compounds in Dilution Plate (DP), and administrate to cells at Assay Plate (AP). DMSO content of the samples was kept at 0.2%. Cells were incubated for additional 22 hours before luciferase activities were measured. Thirty minutes before intending to quantify FXR activity, remove Detection Substrate and Detection Buffer from the refrigerator and place them in a low-light area so that they may equilibrate to room temperature. Remove the plate's lid and discard all media contents by ejecting it into an appropriate waste container. Gently tap the inverted plate onto a clean absorbent paper towel to remove residual droplets. Cells will remain tightly adhered to well bottoms. Add 100 ul of luciferase detection reagent to each well of the assay plate. Allow the assay plate to rest at room temperature for at least 5 minutes following the addition of LDR. Set the instrument (Envision) to perform a single 5 second “plate shake” prior to reading the first assay well. Read time may be 0.5 second (500 mSec) per well.

| SMILES | Emax [%] | EC50 [nM] |
| --- | --- | --- |
| CC(C)Oc1cc(C(=O)NS(=O)(=O)C2(C)CC2)cc2sc(N3CCC(NCc4c(-c5c(Cl)cccc5Cl)noc4C4CC4)CC3)nc12 [Example 400-4] | 97.5 | 1 to 100 |
| O=C(NS(=O)(=O)C1CC1)c1ccc(N2C3CCC2CC(NCc2c(-c4c(Cl)cccc4Cl)noc2C2CC2)C3)nc1 (stereo not shown) [Example 400-37] | 82.5 | 1 to 100 |
| COC(=O)c1cc(F)c2nc(N3CCC(NCc4c(-c5c(Cl)cccc5Cl)noc4C4CC4)CC3)sc2c1 [Example 200-5] | 72 | 100 to 1000 |
| Cc1c(C(=O)O)ccc2nc(N3C4CCC3CC(NCc3c(-c5c(Cl)cccc5Cl)noc3C3CC3)C4)sc12 (stereo not shown) [Example 196] | 83.5 | 1 to 100 |
| CC(C)Oc1cc(C(=O)NS(=O)(=O)N2CCCC2)cc2sc(N3CCC(NCc4c(-c5c(Cl)cccc5Cl)noc4C4CC4)CC3)nc12 [Example 400-5] | 110 | 1 to 100 |
| COC(=O)c1ccc2nc(N3C4CCC3CC(N(C)Cc3c(-c5c(Cl)cccc5Cl)noc3C3CC3)C4)sc2c1 (stereo not shown) [Example 179] | 148 | 100 to 1000 |
| CC(C)Oc1cc(C(=O)NS(=O)(=O)N2CCCCC2)cc2sc(N3CCC(NCc4c(-c5c(Cl)cccc5Cl)noc4C4CC4)CC3)nc12 [Example 400-6] | 73.5 | 1 to 100 |
| CN(C)S(=O)(=O)NC(=O)c1ccc2nc(N3C4CCC3CC(NCc3c(-c5c(Cl)cccc5Cl)noc3C3CC3)C4)sc2c1 (single isomer, unassigned) [Example 225] | 126 | < 1 |
| CC(C)Oc1cc(C(=O)O)cc2sc(N3C4CCC3CC(NCc3c(-c5c(F)cccc5F)noc3C3CC3)C4)nc12 (stereo not shown) [Example 1426] | 73.2 | 100 to 1000 |
| CC(C)Oc1cc(C(=O)O)cc2sc(N3CCC(NCc4c(-c5ccccc5OC(F)(F)F)noc4C4CC4)CC3)nc12 [Example 640] | 92.3 | 1 to 100 |
| CC(C)Oc1cc(C(=O)O)cc2sc(N3C4CCC3CC(NCc3c(-c5c(Cl)cccc5Cl)noc3C3CC3)C4)nc12 (stereo not shown) [Example 200-14] | 93.5 | < 1 |
| O=C(O)c1ccc2nc(N3C4CCC3CC(NCc3c(-c5ccccc5OC(F)(F)F)noc3C3CC3)C4)ccc2c1 (stereo not shown) [Example 514] | 100 | 1 to 100 |
| O=C(O)c1ccc2nc(N3[C@@H]4CC[C@H]3C[C@H](NCc3c(-c5c(Cl)cccc5Cl)noc3C3CC3)C4)sc2c1 [Example 178] | 108 | > 1000 |
| CC1(S(=O)(=O)NC(=O)c2ccc3nc(N4C5CCC4CC(NCc4c(-c6ccccc6OC(F)(F)F)noc4C4CC4)C5)sc3c2)CC1 (stereo not shown) [Example 702] | 113 | 1 to 100 |
| Cc1c(C(=O)NS(=O)(=O)N2CCCCC2)ccc2nc(N3C4CCC3CC(NCc3c(-c5c(Cl)cccc5Cl)noc3C3CC3)C4)sc12 (stereo not shown) [Example 400-14] | 119 | < 1 |
| CCOC(=O)c1ccc2nc(N3[C@@H]4CC[C@H]3C[C@@H](NCc3c(-c5c(Cl)cccc5Cl)noc3C3CC3)C4)sc2c1 [Example 1, ethyl 2-((1R,3R,5S)-3-(((5-cyclopropyl-3-(2,6-dichlorophenyl)isoxazol-4-yl)methyl)amino)-8-azabicyclo[3.2.1]octan-8-yl)benzo[d]thiazole-6-carboxylate] | 74 | > 1000 |
| O=C(O)c1cc2sc(N3C4CCC3CC(NCc3c(-c5c(Cl)cccc5Cl)noc3C3CC3)C4)nc2cc1F (stereo not shown) [Example 200-16] | 109 | 1 to 100 |
| COC(=O)c1cc(OC(F)F)c2nc(N3C4CCC3CC(NCc3c(-c5c(Cl)cccc5Cl)noc3C3CC3)C4)sc2c1 (stereo not shown) [Example 189] | 73 | 1 to 100 |
| O=C(NS(=O)(=O)N1CCCC1)c1cc(F)c2nc(N3C4CCC3CC(NCc3c(-c5c(Cl)cccc5Cl)noc3C3CC3)C4)sc2c1 (stereo not shown) [Example 400-1] | 210 | 1 to 100 |

| SMILES | Emax [%] | EC50 [nM] |
| --- | --- | --- |
| COC(=O)c1cc(C2CC2)c2nc(N3C4CCC3CC(NCc3c(-c5c(Cl)cccc5Cl)noc3C3CC3)C4)sc2c1 (stereo not shown) [Example 200-29] | 94 | 1 to 100 |
| O=C(NS(=O)(=O)N1CCOCC1)c1ccc2nc(N3C4CCC3CC(NCc3c(-c5c(Cl)cccc5Cl)noc3C3CC3)C4)sc2c1 (stereo not shown) [Example 234] | 146 | 100 to 1000 |
| COC(=O)c1cc(C)c2nc(N3C4CCC3CC(NCc3c(-c5c(Cl)cccc5Cl)noc3C3CC3)C4)sc2c1 (stereo not shown) [Example 7] | 37 | 1 to 100 |
| CC(C)(C)Oc1ccc(S(=O)(=O)NC(=O)OCc2ccc3nc(N4C5CCC4CC(NCc4c(-c6c(Cl)cccc6Cl)noc4C4CC4)C5)sc3c2)cc1 (stereo not shown) [Example 153] | 113 | 1 to 100 |
| O=C(O)c1cc(C2CC2)c2nc(N3C4CCC3CC(NCc3c(-c5ccccc5OC(F)(F)F)noc3C3CC3)C4)sc2c1 (stereo not shown) [Example 644] | 94.5 | < 1 |
| CC1(S(=O)(=O)NC(=O)c2cc3sc(N4C5CCC4CC(NCc4c(-c6c(Cl)cccc6Cl)noc4C4CC4)C5)nc3cc2F)CC1 (stereo not shown) [Example 400-22] | 83.2 | < 1 |
| CN(c1nc2ccc(C(=O)O)cc2s1)C1CCC(OCc2c(-c3c(Cl)cccc3Cl)noc2C2CC2)CC1 (stereo not shown) [Example 170] | 105 | 100 to 1000 |
| COC(=O)c1cc2sc(N3C4CCC3CC(NCc3c(-c5c(Cl)cccc5Cl)noc3C3CC3)C4)nc2cc1-c1ccccc1 (stereo not shown) [Example 200-23] | 76.5 | 1 to 100 |
| COC(=O)c1cc(F)c2nc(N3C4CCC3CC(NCc3c(-c5ccccc5C(F)(F)F)noc3C3CC3)C4)sc2c1 (stereo not shown) [Example 1407] | 92.5 | 1 to 100 |
| O=C(O)c1ccc(N2C3CCC2CC(NCc2c(-c4ccccc4OC(F)(F)F)noc2C2CC2)C3)nc1 (stereo not shown) [Example 597] | 83.5 | 1 to 100 |
| O=C(O)c1ccc2nc(N3[C@@H]4CC[C@H]3C[C@@H](NCc3c(-c5c(Cl)cccc5Cl)noc3C3CC3)C4)sc2c1 [Example 2, 2-((1R,3R,5S)-3-(((5-cyclopropyl-3-(2,6-dichlorophenyl)isoxazol-4-yl)methyl)amino)-8-azabicyclo[3.2.1]octan-8-yl)benzo[d]thiazole-6-carboxylic acid] | 244 | 1 to 100 |
| Cc1c(C(=O)NS(=O)(=O)C2(C)CC2)ccc2nc(N3C4CCC3CC(NCc3c(-c5c(Cl)cccc5Cl)noc3C3CC3)C4)sc12 (stereo not shown) [Example 400-13] | 83.3 | 1 to 100 |
| CN(Cc1c(-c2c(Cl)cccc2Cl)noc1C1CC1)C1CCN(c2nc3ccc(C(=O)O)cc3s2)CC1 [Example 186] | 45 | > 1000 |
| O=C(NS(=O)(=O)C1CC1)c1ccc2nc(N3C4CCC3CC(NCc3c(-c5ccccc5C(F)(F)F)noc3C3CC3)C4)sc2c1 (stereo not shown) [Example 1416] | 87.5 | 1 to 100 |
| O=C(NS(=O)(=O)N1CCCCC1)c1cc(F)c2nc(N3CCC(NCc4c(-c5c(Cl)cccc5Cl)noc4C4CC4)CC3)sc2c1 [Example 400-8] | 79 | 1 to 100 |
| CC1(S(=O)(=O)NC(=O)c2cc(F)c3nc(N4CCC(NCc5c(-c6c(Cl)cccc6Cl)noc5C5CC5)CC4)sc3c2)CC1 [Example 400-10] | 68 | 100 to 1000 |
| O=C(NS(=O)(=O)C1CC1)c1ccc2nc(N3CCC(NCc4c(-c5ccccc5OC(F)(F)F)noc4C4CC4)CC3)sc2c1 [Example 791] | 63 | > 1000 |
| O=C(NS(=O)(=O)C1CC1)c1cc(F)c(N2C3CCC2CC(NCc2c(-c4ccccc4OC(F)(F)F)noc2C2CC2)C3)c(F)c1 (stereo not shown) [Example 900-11] | 70.5 | 1 to 100 |
| CC1(S(=O)(=O)NC(=O)c2cc(F)c(N3C4CCC3CC(NCc3c(-c5ccccc5OC(F)(F)F)noc3C3CC3)C4)c(F)c2)CC1 (stereo not shown) [Example 900-12] | 67 | 1 to 100 |
